Test results: US20120034320A1, “Skin Penetration Composition” (DOMINION RESOURCES, UNLIMITED, LLC, priority 2010, published 2012)
Counter-ions that a name gives are not always drawn.

Key:
fibromyalgia = assay: Physician observation, Patient A: fibromyalgia; assay type: in vivo, human; conditions: Relievz lotion twice daily to affected areas, pregabalin 400 mg daily, other products as previously used
[1] = system: sciatica and neuropathy (diabetic neuropathy); assay: Physician observation, Patient B: sciatica and diabetic neuropathy; assay type: in vivo, human; conditions: lotion applied to affected areas
Excerpt: The patient continues to use Relievz™ lotion daily.

Compound | relief of fibromyalgia symptoms (fibromyalgia) | pain and ambulation [1]
CNCC[C@H](Oc1cccc2ccccc12)c1cccs1 [Cymbalta®, duloxetine HCl] | no relief | –
CC(C)C[C@H](CN)CC(=O)O [pregabapentin] | – | continued pain
CC(C)C[C@H](CN)CC(=O)O [pregabalin] | no relief | –
NCC1(CC(=O)O)CCCCC1 [gabapentin] | – | continued pain
